# Where two headings read alike, the source gives them in different places.
# Tests used:
# estrogen receptor [1] = settings: cited from earlier work
# [2] = target: T1, aryl hydrocarbon receptor (AhR) (Rattus norvegicus, UniProt P41738); settings: cited from earlier work; for Experimental Log EC50: rodent hepatic cytosol
# T1 construct: rodent hepatic cytosol as a source of the AhR; from tissue; host or cells: rodent hepatic cytosol
# T1 sequence (P41738 10-853): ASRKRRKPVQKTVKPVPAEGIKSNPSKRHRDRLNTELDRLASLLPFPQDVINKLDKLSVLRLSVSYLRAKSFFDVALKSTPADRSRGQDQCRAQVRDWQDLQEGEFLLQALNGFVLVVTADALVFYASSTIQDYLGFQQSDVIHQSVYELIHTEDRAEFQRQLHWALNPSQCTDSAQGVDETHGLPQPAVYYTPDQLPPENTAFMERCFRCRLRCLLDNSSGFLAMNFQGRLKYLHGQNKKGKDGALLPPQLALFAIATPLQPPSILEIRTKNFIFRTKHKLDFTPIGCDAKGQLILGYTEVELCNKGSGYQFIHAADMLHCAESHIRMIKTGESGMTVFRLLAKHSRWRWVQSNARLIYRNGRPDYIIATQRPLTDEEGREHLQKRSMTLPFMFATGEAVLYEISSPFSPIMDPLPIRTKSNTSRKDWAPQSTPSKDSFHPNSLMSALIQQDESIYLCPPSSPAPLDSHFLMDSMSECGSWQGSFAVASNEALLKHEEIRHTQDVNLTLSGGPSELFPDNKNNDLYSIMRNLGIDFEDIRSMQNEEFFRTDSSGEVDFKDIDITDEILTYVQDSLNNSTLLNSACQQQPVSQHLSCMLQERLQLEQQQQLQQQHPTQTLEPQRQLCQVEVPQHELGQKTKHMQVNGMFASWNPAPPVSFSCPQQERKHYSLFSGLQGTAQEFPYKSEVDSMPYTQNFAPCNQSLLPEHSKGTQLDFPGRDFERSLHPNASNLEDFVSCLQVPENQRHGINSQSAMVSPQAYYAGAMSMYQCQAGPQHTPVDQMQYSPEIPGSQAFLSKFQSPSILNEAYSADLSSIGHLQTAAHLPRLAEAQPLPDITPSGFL
# [3] = Minimum inhibitory concentration of cephalosporin antibiotics; assay type: cell-based; parameters: unit not given here
# Source text: This example describes the application of the disclosed CoSCoSA methods to model the minimum inhibitory concentration of cephalosporin antibotics, using only the through-bond (COSY-type) connections between carbons and between carbons and nitrogens in their structures. Bin sizes of 3 ppm by 3 ppm for carbon to carbon bins were used, and 10 ppm by 3 ppm for the nitrogen to carbon bins. […] The structures of the cephalosporins used in the model are shown below.
# [4] = parameters: unit not given here; settings: Minimal Inhibitory Concentration; cited from earlier work
# estrogen receptor [5] = target: T2, estrogen receptor (Rattus norvegicus, UniProt P06211); settings: background statement; cited from earlier work
# T2 construct: in rat uterine cytosol, which was obtained from ovariectomized uteri of Sprague-Dawley rats; from tissue; host or cells: uterine cytosol of ovariectomized Sprague-Dawley rats
# T2 sequence (P06211 1-600): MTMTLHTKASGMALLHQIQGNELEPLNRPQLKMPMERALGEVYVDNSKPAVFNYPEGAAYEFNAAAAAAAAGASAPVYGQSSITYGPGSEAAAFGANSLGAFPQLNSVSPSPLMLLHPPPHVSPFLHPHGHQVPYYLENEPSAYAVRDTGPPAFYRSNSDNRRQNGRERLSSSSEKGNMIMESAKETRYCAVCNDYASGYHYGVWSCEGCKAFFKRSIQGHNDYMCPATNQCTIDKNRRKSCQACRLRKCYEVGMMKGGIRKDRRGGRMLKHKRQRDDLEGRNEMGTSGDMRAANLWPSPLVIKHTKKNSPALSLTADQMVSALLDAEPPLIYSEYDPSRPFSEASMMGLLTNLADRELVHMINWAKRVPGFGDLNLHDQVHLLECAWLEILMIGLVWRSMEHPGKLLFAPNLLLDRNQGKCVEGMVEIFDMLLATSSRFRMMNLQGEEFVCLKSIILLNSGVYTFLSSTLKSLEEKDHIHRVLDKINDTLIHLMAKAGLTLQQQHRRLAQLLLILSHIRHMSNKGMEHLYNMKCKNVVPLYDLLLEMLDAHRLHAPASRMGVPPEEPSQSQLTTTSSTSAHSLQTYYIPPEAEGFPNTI
# [6] = experimental values of Waller et al. and Kuiper et al. external test sets, normalized to NCTR data
# [7] = log scale, competitive binding, [3H]-2,3,7,8-tetrachlorodioxin, previously reported training data
# [8] = previously reported competitive in vitro AhR binding, [3H]-2,3,7,8-tetrachlorodioxin radioligand, values are log EC50
smiles,measurement,setting,value
"Clc1ccc(Cl)c(-c2cc(Cl)ccc2Cl)c1 [2,2′5,5′-tetraCl-biphenyl]",Normalized log (RBA),estrogen receptor [1]; [6],−2.67
"Oc1c(Cl)cc(Cl)c(Cl)c1-c1cc(Cl)cc(Cl)c1Cl [2,2′,3,3′,5,5′-heaxCl-6′-biphenylol]",Normalized log (RBA),estrogen receptor [1]; [6],−2.69
"Oc1cc(Cl)c(-c2c(Cl)ccc(Cl)c2Cl)c(Cl)c1Cl [2,2′,3,3′,6,6′-hexaCl-4-biphenylol]",Normalized log (RBA),estrogen receptor [1]; [6],−2.74
"Oc1cc(Cl)c(-c2c(Cl)cc(Cl)cc2Cl)c(Cl)c1Cl [2,2′,3,4′,6,6′-hexaCl-4-biphenylol]",Normalized log (RBA),estrogen receptor [1]; [6],−2.60
"Oc1cc(Cl)c(-c2c(Cl)cccc2Cl)c(Cl)c1Cl [2,2′,3,6,6′-pentaCl-4-biphenylol]",Normalized log (RBA),estrogen receptor [1]; [6],−1.97
"Clc1cc(Cl)c(-c2cc(Cl)c(Cl)cc2Cl)cc1Cl [2,2′,4,4′,5,5′-hexaCl-biphenyl]",Experimental Log EC50,[2]; [7],−5.10
same,Experimental Log EC50,[2]; [8],−5.10
same,Normalized log (RBA),estrogen receptor [1]; [6],−2.83
"Clc1cc(Cl)c(-c2c(Cl)cc(Cl)cc2Cl)c(Cl)c1 [2,2′,4,4′,6,6′-hexaCl-biphenyl]",Normalized log (RBA),estrogen receptor [1]; [6],−1.87
"Oc1ccc(-c2c(Cl)c(Cl)c(O)c(Cl)c2Cl)cc1 [2,3,5,6,tetraCl-4,4′-biphenyldiol]",Normalized log (RBA),estrogen receptor [1]; [6],−2.18
"Clc1cc2c(cc1Cl)Oc1cc(Cl)c(Cl)cc1O2 [2,3,7,8-tetraCl-dibenzodioxin]",binding to the AhR (in words),[2],strong binder
same,Experimental Log EC50,[2]; [7],−9.00
same,Experimental Log EC50,[2]; [8],−9.00
"Clc1cc2oc3cc(Cl)c(Cl)cc3c2cc1Cl [2,3,7,8-tetraCl-dibenzofuran]",binding to the AhR (in words),[2],strong binder
same,Experimental Log EC50,[2]; [7],−8.60
same,Experimental Log EC50,[2]; [8],−8.60
"Clc1ccc2c(c1)Oc1cc(Cl)c(Cl)cc1O2 [2,3,7-triCl-dibenzodioxin]",Experimental Log EC50,[2]; [7],−8.15
same,Experimental Log EC50,[2]; [8],−8.15
"Clc1cc(Cl)c(-c2cc(Cl)c(Cl)c(Cl)c2)cc1Cl [2,3′,4,4′,5,5′-hexaCl-biphenyl]",Experimental Log EC50,[2]; [7],−5.80
same,Experimental Log EC50,[2]; [8],−5.80
"Clc1ccc(-c2cc(Cl)c(Cl)cc2Cl)cc1Cl [2,3′,4,4′,5-pentaCl-biphenyl]",Experimental Log EC50,[2]; [7],−6.04
same,Experimental Log EC50,[2]; [8],−6.04
"Oc1ccc(-c2c(Cl)cc(Cl)cc2Cl)cc1 [2,4,6,-triCl-4′-biphenylol]",Normalized log (RBA),estrogen receptor [1]; [6],−0.16
"Oc1ccc(-c2c(Cl)cccc2Cl)cc1 [2,6-dichloro-4′-biphenylol]",Normalized log (RBA),estrogen receptor [1]; [6],−1.11
"Clc1ccc2c(c1)Oc1cc(Cl)ccc1O2 [2,8-diCl-dibenzodioxin]",Experimental Log EC50,[2]; [7],−6.49
same,Experimental Log EC50,[2]; [8],−6.49
"Oc1ccc(-c2ccc(O)cc2Cl)cc1 [2-Cl-4,4′-biphenyldiol]",Normalized log (RBA),estrogen receptor [1]; [6],−0.61
"Clc1ccc(-c2ccc(Cl)c(Cl)c2Cl)cc1Cl [2′,3′4,4′,5-pentaCl-biphenyl]",Experimental Log EC50,[2]; [7],−5.85
same,Experimental Log EC50,[2]; [8],−5.85
"Clc1ccc(-c2cc(Cl)c(Cl)c(Cl)c2)cc1Cl [3,3′,4,4′,5-pentaCl-biphenyl]",Experimental Log EC50,[2]; [7],−7.92
same,Experimental Log EC50,[2]; [8],−7.92
"Clc1ccc(-c2ccc(Cl)c(Cl)c2)cc1Cl [3,3′,4,4′-tetraCl-biphenyl]",Experimental Log EC50,[2]; [7],−7.37
same,Experimental Log EC50,[2]; [8],−7.37
CC(C)(C)c1cccc(O)c1 [3-tert-butylphenol],Normalized log (RBA),estrogen receptor [1]; [6],−4.82
C[C@]12CC[C@H]3[C@@H](CC=C4C[C@@H](O)CC[C@@]43C)[C@@H]1CC[C@@H]2O [5-Androstenediol],Normalized log (RBA),estrogen receptor [1],−0.49
C[C@]12CC[C@@H]3c4ccc(O)cc4CC[C@H]3[C@@H]1CC(=O)[C@@H]2O [16-ketoestradiol],Normalized log (RBA),estrogen receptor [1],−0.38
CC12CCC3c4ccc(O)cc4CCC3C1CC(Br)C2O (stereo not shown) [16a-bromoestradiol],Normalized log (RBA),estrogen receptor [1]; [6],1.41
N[C@@H](C(=O)N[C@@H]1C(=O)N2C(C(=O)O)=C(Cl)CS[C@H]12)c1ccccc1 [Cefaclor],Log(1/MIC),[3],−.90
same,MIC,[4],8
CCN1CCN(C(=O)N[C@@H](C(=O)N[C@@H]2C(=O)N3C(C(=O)O)=C(CSc4nnnn4C)CS[C@H]23)c2ccc(O)cc2)C(=O)C1=O [Cefaperazone],Log(1/MIC),[3],−1.20
same,MIC,[4],16
C=CC1=C(C(=O)O)N2C(=O)[C@@H](NC(=O)/C(=N\OCC(=O)O)c3csc(N)n3)[C@H]2SC1 [Cefixime],Log(1/MIC),[3],−.90
CO[C@@]1(NC(=O)CSCC#N)C(=O)N2C(C(=O)O)=C(CSc3nnnn3C)CS[C@@H]21 [Cefmetazole],Log(1/MIC),[3],−1.20
same,MIC,[4],16
CO[C@@]1(NC(=O)C2SC(=C(C(N)=O)C(=O)O)S2)C(=O)N2C(C(=O)O)=C(CSc3nnnn3C)CS[C@@H]21 (stereo partly shown) [Cefotetan],Log(1/MIC),[3],−1.20
CO[C@@]1(NC(=O)Cc2cccs2)C(=O)N2C(C(=O)O)=C(COC(N)=O)CS[C@@H]21 [Cefoxitin],Log(1/MIC),[3],−1.20
same,MIC,[4],16
COCC1=C(C(=O)O)N2C(=O)[C@@H](NC(=O)/C(=N\OC)c3csc(N)n3)[C@H]2SC1 [Cefpodoxime],Log(1/MIC),[3],−.30
CC(C)(O/N=C(\C(=O)N[C@@H]1C(=O)N2C(C(=O)[O-])=C(C[n+]3ccccc3)CS[C@H]12)c1csc(N)n1)C(=O)O [Ceftazidime],Log(1/MIC),[3],−1.20
same,MIC,[4],16
CO/N=C(\C(=O)N[C@@H]1C(=O)N2C(C(=O)O)=CCS[C@H]12)c1csc(N)n1 [Ceftizoxime],Log(1/MIC),[3],−.90
same,MIC,[4],8
CO/N=C(\C(=O)N[C@@H]1C(=O)N2C(C(=O)O)=C(COC(N)=O)CS[C@H]12)c1ccco1 [Cefuroxime],Log(1/MIC),[3],−.60
same,MIC,[4],4
CC1=C(C(=O)O)N2C(=O)[C@@H](NC(=O)[C@H](N)c3ccccc3)[C@H]2SC1 [Cephalexin],Log(1/MIC),[3],−.90
same,MIC,[4],8
CC(=O)OCC1=C(C(=O)O)N2C(=O)[C@@H](NC(=O)Cc3cccs3)[C@H]2SC1 [Cephalothin],Log(1/MIC),[3],−.90
same,MIC,[4],8
CC(=O)OCC1=C(C(=O)O)N2C(=O)[C@@H](NC(=O)CSc3ccncc3)[C@H]2SC1 [Cephapirin],Log(1/MIC),[3],−.90
same,MIC,[4],8
CC1=C(C(=O)O)N2C(=O)[C@@H](NC(=O)[C@H](N)C3=CCC=CC3)[C@H]2SC1 [Cephradine],Log(1/MIC),[3],−.90
same,MIC,[4],8
CCC1=C(c2ccc(O)cc2)[C@H](C)c2cc(O)ccc21 [Indenestrol A (R)],Normalized log (RBA),estrogen receptor [1]; [6],1.08
CCC1=C(c2ccc(O)cc2)[C@@H](C)c2cc(O)ccc21 [Indenestrol A (S)],Normalized log (RBA),estrogen receptor [1]; [6],2.39
CCC(=O)[C@@]1(C)CC[C@H]2[C@@H]3CCC4=CC(=O)CCC4=C3CC[C@@]21C [R 5020],Normalized log (RBA),estrogen receptor [1]; [6],−1.81
O=C(c1ccc(OCCN2CCCCC2)cc1)c1c(-c2ccc(O)cc2)sc2cc(O)ccc12 [Raloxifene],Normalized log (RBA),estrogen receptor [1]; [6],1.34
C[C@H]1CCCC(=O)CCC/C=C/c2cc(O)cc(O)c2C(=O)O1 [Zearalenone],Normalized log (RBA),estrogen receptor [1]; [6],0.91
C/C(=C(/C)c1ccc(O)cc1)c1ccc(O)cc1 [dimethystilbesterol],binding to the estrogen receptor (in words),estrogen receptor [5],bind strongly
Clc1c(Cl)c(Cl)c2c(c1Cl)Oc1c(Cl)c(Cl)c(Cl)c(Cl)c1O2 [octaCl-dibenzodioxin],Experimental Log EC50,[2]; [7],−6.00
same,Experimental Log EC50,[2]; [8],−6.00

# Source: patent US7996156B2, “Methods for predicting properties of molecules” (priority 2002, dated 2011)
